# *1 amine or outer side, *2 acyl side, *3 side chain or, on linkers, in order; H or OH if unused. Where a SMILES comes first, the peptide text is derived from it. Bridges are numbered along the chain shown (N, C = ends). [ ]: non-standard residue; d: D form. The star is where a group is joined. ξ: configuration not given here. Phe(4-COOH) = N[C@@H](Cc1ccc(C(=O)O)cc1)C(=O)O; Bip = N[C@@H](Cc1ccc(-c2ccccc2)cc1)C(=O)O; Phe(3-Me) = Cc1cccc(C[C@H](N)C(=O)O)c1; X14 = O=C([C@H](CCCCO)N[*:1])[*:2]; hArg = N=C(N)NCCCC[C@H](N)C(=O)O; 4Pal = N[C@@H](Cc1ccncc1)C(=O)O; Aad = N[C@@H](CCCC(=O)O)C(=O)O; Cha = N[C@@H](CC1CCCCC1)C(=O)O; Cit = NC(=O)NCCC[C@H](N)C(=O)O; Ile(3ξ) = CCC(C)[C@H](N)C(=O)O; Thr(3ξ) = CC(O)[C@H](N)C(=O)O; hSer = N[C@@H](CCO)C(=O)O; Carboxymethyl = O=C(O)C*; NMeA = CN[C@@H](C)C(=O)O; Orn = NCCC[C@H](N)C(=O)O; Aun = NCCCCCCCCCCC(=O)O; Dab = NCC[C@H](N)C(=O)O; AEEA = NCCOCCOCC(=O)O
# Target: T1, PD-1/PD-L1 interaction (PE-labeled human PD-L1-Ig binding to Jurkat cell line over-expressing human PD-1) (Homo sapiens, UniProt Q15116)
# T1 construct: expressed in transfected cells; host or cells: Jurkat
# Test: Jurkat-PD-1 Cell Binding High-Content Screening Assay (CBA)
# Conditions: Jurkat-hPD-1 cells, PE-labeled PD-L1-Ig 20 nM final; read-out: Jurkat HPD1 PDL1 IC50
# Procedure, shortened: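 Jurkat-hPD-1 cells (8×10^3/well) in DMEM with 10% fetal calf serum were preincubated with compound for 2 h at 37 °C. PE-labeled PD-L1-Ig was then added at 20 nM final for 1 h. Cells were fixed in paraformaldehyde with Hoechst 33342, washed and imaged by high-content imaging.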
# T1 sequence (Q15116 25-288): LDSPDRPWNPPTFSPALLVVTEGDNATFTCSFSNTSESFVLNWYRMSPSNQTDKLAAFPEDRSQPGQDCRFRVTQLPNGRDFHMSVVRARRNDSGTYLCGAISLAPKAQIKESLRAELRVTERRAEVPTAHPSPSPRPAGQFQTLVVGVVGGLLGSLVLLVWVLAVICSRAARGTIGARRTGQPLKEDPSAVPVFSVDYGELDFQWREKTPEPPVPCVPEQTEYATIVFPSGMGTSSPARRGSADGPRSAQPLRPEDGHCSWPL
row,IC50 [nM],SMILES
1,83.7,CCC(C)[C@@H]1NC(=O)[C@H](Cc2ccc(-c3ccccc3)cc2)NC(=O)[C@H](CC(C)C)NC(=O)[C@H](Cc2c[nH]c3ccccc23)NC(=O)[C@H](CC(=O)O)NC(=O)[C@H](Cc2ccc(OCC(=O)O)cc2)NC(=O)[C@H](CCCCNC(=N)N)NC(=O)CSC[C@@H](C(=O)N[C@@H](CCN)C(=O)NCCOCCOCC(=O)NCCCCCCCCCCC(=O)O)NC(=O)[C@H](CCCCN)NC(=O)[C@H](C(C)C)NC(=O)[C@H](CC2CCCCC2)NC(=O)[C@H](CCN)NC(=O)[C@H]2CCCN2C(=O)[C@H](C)N(C)C1=O (stereo partly shown) [Example 2206] ({CH2CO}-[hArg]Y(Carboxymethyl)DWL[Bip][Ile(3ξ)][NMeA][dP][Dab][Cha]VKC[Dab][AEEA][Aun]-OH; thioether N-14)
2,9.9,CC(C)C[C@@H]1NC(=O)[C@H](Cc2c[nH]c3ccccc23)NC(=O)[C@H](CC(=O)O)NC(=O)[C@H](Cc2ccc(C(=O)O)cc2)NC(=O)[C@H](Cc2ccc(OCC(=O)O)cc2)NC(=O)CSC[C@@H](C(=O)N[C@@H](CCN)C(=O)NCCOCCOCC(=O)NCCCCCCCCCCC(=O)O)NC(=O)[C@H](CCCCN)NC(=O)[C@H](C(C)C)NC(=O)[C@H](CC2CCCCC2)NC(=O)[C@H](CCN)NC(=O)[C@@H](C)NC(=O)[C@H](C)N(C)C(=O)[C@H](C(C)C)NC(=O)[C@H](Cc2ccc(-c3ccccc3)cc2)NC1=O [Example 2207] ({CH2CO}-Y(Carboxymethyl)[Phe(4-COOH)]DWL[Bip]V[NMeA][dA][Dab][Cha]VKC[Dab][AEEA][Aun]-OH; thioether N-14)
3,24.7,CCC(C)[C@@H]1NC(=O)[C@H](Cc2ccc(-c3ccccc3)cc2)NC(=O)[C@H](C(C)C)NC(=O)[C@H](Cc2c[nH]c3ccccc23)NC(=O)[C@H](CC(=O)O)NC(=O)[C@H](Cc2ccc(OCC(=O)O)cc2)NC(=O)[C@H](C(C)O)NC(=O)CSC[C@@H](C(=O)N[C@H](CC(N)=O)C(=O)NCCOCCOCC(=O)NCCCCCCCCCCC(=O)O)NC(=O)[C@H](CCCCN)NC(=O)[C@H](C(C)C)NC(=O)[C@H](CC2CCCCC2)NC(=O)[C@H](CCN)NC(=O)[C@@H](CC(C)C)NC(=O)[C@H](C)N(C)C1=O (stereo partly drawn) [Example 2208] ({CH2CO}-[Thr(3ξ)]Y(Carboxymethyl)DWV[Bip][Ile(3ξ)][NMeA][dL][Dab][Cha]VKC[dN][AEEA][Aun]-OH; thioether N-14)
4,15.6,CCC(C)[C@@H]1NC(=O)[C@H](Cc2ccc(-c3ccccc3)cc2)NC(=O)[C@H](C(C)C)NC(=O)[C@H](Cc2c[nH]c3ccccc23)NC(=O)[C@H](CC(=O)O)NC(=O)[C@H](Cc2ccc(OCC(=O)O)cc2)NC(=O)[C@H](C(C)O)NC(=O)CSC[C@@H](C(=O)N[C@H](CC(N)=O)C(=O)NCCCCCCCCCCC(=O)O)NC(=O)[C@H](CO)NC(=O)[C@H](C(C)C)NC(=O)[C@H](CC2CCCCC2)NC(=O)[C@H](CCN)NC(=O)[C@@H](CC(C)C)NC(=O)[C@H](C)N(C)C1=O (stereo partly drawn) [Example 2209] ({CH2CO}-[Thr(3ξ)]Y(Carboxymethyl)DWV[Bip][Ile(3ξ)][NMeA][dL][Dab][Cha]VSC[dN][Aun]-OH; thioether N-14)
5,10,CCC(C)[C@@H]1NC(=O)[C@H](Cc2ccc(-c3ccccc3)cc2)NC(=O)[C@H](C(C)C)NC(=O)[C@H](Cc2c[nH]c3ccccc23)NC(=O)[C@H](CC(=O)O)NC(=O)[C@H](Cc2ccc(OCC(=O)O)cc2)NC(=O)[C@H](C(C)O)NC(=O)CSC[C@@H](C(=O)N[C@H](CC(N)=O)C(=O)NCCCCCCCCCCC(=O)O)NC(=O)[C@H](CCCCN)NC(=O)[C@H](C(C)C)NC(=O)[C@H](CC2CCCCC2)NC(=O)[C@H](CCN)NC(=O)[C@@H](CC(C)C)NC(=O)[C@H](C)N(C)C1=O (stereo partly drawn) [Example 2210] ({CH2CO}-[Thr(3ξ)]Y(Carboxymethyl)DWV[Bip][Ile(3ξ)][NMeA][dL][Dab][Cha]VKC[dN][Aun]-OH; thioether N-14)
6,8.5,Cc1cccc(C[C@@H]2NC(=O)[C@H](CC(=O)O)NC(=O)[C@H](Cc3ccc(OCC(=O)O)cc3)NC(=O)[C@H](CCCNC(=N)N)NC(=O)CSC[C@@H](C(=O)N[C@@H](CCN)C(=O)NCCCCCCCCCCC(=O)O)NC(=O)[C@H](C(C)O)NC(=O)[C@H](C(C)C)NC(=O)[C@H](CC3CCCCC3)NC(=O)[C@H](CCN)NC(=O)[C@@H](CC(C)C)NC(=O)[C@H](C)N(C)C(=O)[C@H](CCCNC(N)=O)NC(=O)[C@H](Cc3ccc(-c4ccccc4)cc3)NC(=O)[C@H](C(C)C)NC2=O)c1 (stereo partly drawn) [Example 2211] ({CH2CO}-RY(Carboxymethyl)D[Phe(3-Me)]V[Bip][Cit][NMeA][dL][Dab][Cha]V[Thr(3ξ)]C[Dab][Aun]-OH; thioether N-14)
7,16.1,Cc1cccc(C[C@@H]2NC(=O)[C@H](CC(=O)O)NC(=O)[C@H](Cc3ccc(OCC(=O)O)cc3)NC(=O)[C@H](CCCNC(=N)N)NC(=O)CSC[C@@H](C(=O)N[C@@H](CCN)C(=O)NCCCCCCCCCCC(=O)O)NC(=O)[C@H](CCCCN)NC(=O)[C@H](C(C)C)NC(=O)[C@H](CC3CCCCC3)NC(=O)[C@H](CCN)NC(=O)[C@@H](CC(C)C)NC(=O)[C@H](C)N(C)C(=O)[C@H](CCCNC(N)=O)NC(=O)[C@H](Cc3ccc(-c4ccccc4)cc3)NC(=O)[C@H](C(C)C)NC2=O)c1 [Example 2212] ({CH2CO}-RY(Carboxymethyl)D[Phe(3-Me)]V[Bip][Cit][NMeA][dL][Dab][Cha]VKC[Dab][Aun]-OH; thioether N-14)
8,14.4,Cc1cccc(C[C@@H]2NC(=O)[C@H](CC(=O)O)NC(=O)[C@H](Cc3ccc(C(=O)O)cc3)NC(=O)[C@H](Cc3ccc(OCC(=O)O)cc3)NC(=O)CSC[C@@H](C(=O)NCCOCCOCC(=O)NCCCCCCCCCCC(=O)O)NC(=O)[C@H](CCCCO)NC(=O)[C@H](C(C)C)NC(=O)[C@H](CC3CCCCC3)NC(=O)[C@H](CCN)NC(=O)[C@@H](CC(C)C)NC(=O)[C@H](C)N(C)C(=O)[C@H](Cc3ccc(O)cc3)NC(=O)[C@H](Cc3ccc(-c4ccccc4)cc3)NC(=O)[C@H](C(C)C)NC2=O)c1 [Example 2213] ({CH2CO}-Y(Carboxymethyl)[Phe(4-COOH)]D[Phe(3-Me)]V[Bip]Y[NMeA][dL][Dab][Cha]V[X14]C[AEEA][Aun]-OH; thioether N-14)
9,16.3,Cc1cccc(C[C@@H]2NC(=O)[C@H](CC(=O)O)NC(=O)[C@H](Cc3ccc(C(=O)O)cc3)NC(=O)[C@H](Cc3ccc(OCC(=O)O)cc3)NC(=O)CSC[C@@H](C(=O)N[C@@H](CCN)C(=O)NCCCCCCCCCCC(=O)O)NC(=O)[C@H](CCCC(=O)O)NC(=O)[C@H](C(C)C)NC(=O)[C@H](CC3CCCCC3)NC(=O)[C@H](CCN)NC(=O)[C@@H](CC(C)C)NC(=O)[C@H](C)N(C)C(=O)[C@H](C(C)C)NC(=O)[C@H](Cc3ccc(-c4ccccc4)cc3)NC(=O)[C@H](C(C)C)NC2=O)c1 [Example 2214] ({CH2CO}-Y(Carboxymethyl)[Phe(4-COOH)]D[Phe(3-Me)]V[Bip]V[NMeA][dL][Dab][Cha]V[Aad]C[Dab][Aun]-OH; thioether N-14)
10,9.2,Cc1cccc(C[C@@H]2NC(=O)[C@H](CC(=O)O)NC(=O)[C@H](Cc3c[nH]cn3)NC(=O)[C@H](Cc3ccc(OCC(=O)O)cc3)NC(=O)CSC[C@@H](C(=O)N[C@@H](CCN)C(=O)NCCCCCCCCCCC(=O)O)NC(=O)[C@H](CCCC(=O)O)NC(=O)[C@H](C(C)C)NC(=O)[C@H](CC3CCCCC3)NC(=O)[C@H](CCN)NC(=O)[C@@H](CC(C)C)NC(=O)[C@H](C)N(C)C(=O)[C@H](C(C)C)NC(=O)[C@H](Cc3ccc(-c4ccccc4)cc3)NC(=O)[C@H](C(C)C)NC2=O)c1 [Example 2215] ({CH2CO}-Y(Carboxymethyl)HD[Phe(3-Me)]V[Bip]V[NMeA][dL][Dab][Cha]V[Aad]C[Dab][Aun]-OH; thioether N-14)
11,13.9,Cc1cccc(C[C@@H]2NC(=O)[C@H](CC(=O)O)NC(=O)[C@H](Cc3ccc(C(=O)O)cc3)NC(=O)[C@H](Cc3ccc(OCC(=O)O)cc3)NC(=O)CSC[C@@H](C(=O)NCCCCCCCCCCC(=O)O)NC(=O)[C@H](CCCNC(N)=O)NC(=O)[C@H](C(C)C)NC(=O)[C@H](CC3CCCCC3)NC(=O)[C@H](CCN)NC(=O)[C@@H](CC(C)C)NC(=O)[C@H](C)N(C)C(=O)[C@H](C(C)C)NC(=O)[C@H](Cc3ccc(-c4ccccc4)cc3)NC(=O)[C@H](C(C)C)NC2=O)c1 [Example 2216] ({CH2CO}-Y(Carboxymethyl)[Phe(4-COOH)]D[Phe(3-Me)]V[Bip]V[NMeA][dL][Dab][Cha]V[Cit]C[Aun]-OH; thioether N-14)
12,11.5,Cc1cccc(C[C@@H]2NC(=O)[C@H](CC(=O)O)NC(=O)[C@H](Cc3ccc(C(=O)O)cc3)NC(=O)[C@H](Cc3ccc(OCC(=O)O)cc3)NC(=O)CSC[C@@H](C(=O)NCCOCCOCC(=O)NCCCCCCCCCCC(=O)O)NC(=O)[C@H](CCO)NC(=O)[C@H](C(C)C)NC(=O)[C@H](CC3CCCCC3)NC(=O)[C@H](CCN)NC(=O)[C@@H](CC(C)C)NC(=O)[C@H](C)N(C)C(=O)[C@H](C(C)C)NC(=O)[C@H](Cc3ccc(-c4ccccc4)cc3)NC(=O)[C@H](C(C)C)NC2=O)c1 [Example 2217] ({CH2CO}-Y(Carboxymethyl)[Phe(4-COOH)]D[Phe(3-Me)]V[Bip]V[NMeA][dL][Dab][Cha]V[hSer]C[AEEA][Aun]-OH; thioether N-14)
13,33.3,Cc1cccc(C[C@@H]2NC(=O)[C@H](CC(=O)O)NC(=O)[C@H](Cc3ccc(OCC(=O)O)cc3)NC(=O)[C@H](Cc3ccncc3)NC(=O)CSC[C@@H](C(=O)NCCOCCOCC(=O)NCCCCCCCCCCC(=O)O)NC(=O)[C@H](CCCN)NC(=O)[C@H](C(C)C)NC(=O)[C@H](CC3CCCCC3)NC(=O)[C@H](CCN)NC(=O)[C@@H](CC(C)C)NC(=O)[C@H](C)N(C)C(=O)[C@H](Cc3ccc(O)cc3)NC(=O)[C@H](Cc3ccc(-c4ccccc4)cc3)NC(=O)[C@H](CC(C)C)NC2=O)c1 [Example 2218] ({CH2CO}-[4Pal]Y(Carboxymethyl)D[Phe(3-Me)]L[Bip]Y[NMeA][dL][Dab][Cha]V[Orn]C[AEEA][Aun]-OH; thioether N-14)

# Reference: patent US20260070945A1, “MACROCYCLIC IMMUNOMODULATORS” (Bristol-Myers Squibb Company, priority 2022, published 2026)
